Legend:
[1] = system: cardiac muscle; assay: Cardiac beat frequency after drug injection into the reservoir of the InterOrgan platform; type: cell-based, human; conditions: 10 μM into reservoir at t=0; assessed at 24 and 72 hours
[2] = system: miRNAs in heart tissues; type: cell-based, human
Text: We used the GeneChip™ miRNA 4.0 Array (ThermoFisher) to measure differential expression of miRNAs in heart tissues following Dox treatment.
Differential expressions of all other miRNAs were highly significant in the InterOrgan platform, based on Normalized Enrichment Scores (NES), showing activity consistent with published clinical results for 20 out of the 22 miRNAs (FIGS. 14A-14F).
miRNA was isolated using miRNeasy Mini Kit from (Qiagen, 217004). Samples were shipped on dry ice to Advanced BioMedical Laboratories and assayed using the miRNA 4.0 Genechip Array (ThermoFisher). Results were analyzed using the TAC 4.0 software (ThermoFisher). Additional Ingenuity Pathway Analysis was performed using the methodology described above.
To assess the activity of miRNAs, gene set enrichment analysis (GSEA) was performed of their targets, as determined by MultiMiR (release 3.11) and RBio-mirGS (update 0.2.12) biocoductor packages (in R) for genes that were differentially expressed after Dox treatment. Since miRNAs generally repress their targets, the sign of the normalized enrichment score was reversed to correctly report their change in activity. For instance, a positive target enrichment for miR-1273a's targets was reported as a negative NES (NES=−21.31) because it is consistent with its downregulation. […]

[3] = system: engineered skin tissues; assay: Doxorubicin-induced toxicity: skin functional assays; type: cell-based, human; conditions: 30 μM Dox, both Isolated and InterOrgan cultures
Description: Skin functional assays: For drug-induced toxicity studies, electrical current was run through the tissues by placing electrodes on either side of the skin tissue and the change in resistance was subsequently measured and read as a function of the barrier. All tissues were analyzed using the same electrode holder setup to standardize the positions of electrodes with respect to the tissue. To analyze the transport of molecules through the skin barrier, Fluorescein (FITC, ThermoFisher, D3306) powder was added to the epidermis of skin tissues. After 3 hrs, 100 μl of supernatant from the dermal region below the skin tissue was sampled and assayed on a plate reader (BioTex SynergyHTX).

[4] = system: human engineered cardiac tissue; assay: Validation of engineered cardiac tissue by drugs with known cardiac effects (beat frequency); type: cell-based; conditions: doxorubicin 1 μM over 72 hours
Description: The cardiac tissue model was generated from iPS-derived cardiomyocytes and fibroblasts encapsulated in fibrin hydrogel, as in our previous studies. The tissue was formed between two elastic pillars causing cell elongation and alignment, and subjected to electrical stimulation to synchronously contract and work against the pillars.
Specifically, linsitinib was dissolved at a 10 mM concentration in DMSO (Corning) and mixed in with the respective cell medium at a […] concentration unless otherwise noted. Vehicle treatments involved just the addition of DMSO at identical volumes as a control. Tissues were randomly assigned to experimental groups. Medium was changed every day.
To measure the cardiac contractility online, we took contractility videos of the tissues that were analyzed using the native MATLAB code we previously developed. Tissue contractility was measured by tracking the change in tissue area as a function of time. […] Absolute differences in cell area from the baseline frame were then calculated to create a time course of cell area changes over time. The resulting time courses were analyzed using a native MATLAB (MATHWorks) automated peak finding algorithm to determine locations of maximum cell contractions in the time profiles. […] The rate of proarrhythmic events was calculated by the ratio of the number of proarrhythmic events over the total number of beats.

[5] = system: all tissues in the InterOrgan platform (heart, liver, bone, skin); assay: Doxorubicin-induced toxicity: cell viability, glucose consumption, mitochondrial activity of engineered tissues; type: cell-based, human; conditions: 30 μM Dox, 72 hours
Description: Metabolic Assays: Glucose, lactate, glutamate and glutamine were measured in parallel using the bioluminescent Glucose-Glo™ (Promega, cat. no. J6021), Lactate-Glo™ (Promega, cat. No. J5021), Glutamine/Glutamate-Glo™ (Promega, cat. no. J8021) and Glutamate-Glo™ (Promega, cat. no. J7021) assays according to the manufacturer's protocols.

[6] = FITC absorption and diffusive transport in the integrated platform; type: physicochemical
Description: Fluorescein isothiocyanate (FITC, 10 mM in DMSO; Sigma Aldrich) was circulated for the integrated platform to determine potential hydrophobic small molecule absorption, given its physical and chemical properties. FITC was added at a concentration of 10 µM to 8 mL of 1:1 bone tumor/cardiac mixed media and introduced into the platform. The control was the FITC-containing media in a standard 24-multiwell plate (Corning). Aliquots from the reservoir, bone tumor, and cardiac tissue chambers were taken at 12, 24, 48 and 72 hours and measured for fluorescent signal using a spectrophotometer (Biotek).
Measurements of FITC concentrations were used to estimate the spread of linsitinib within the platform via diffusive circulating transport. Four independent platforms were filled with 8 mL of 1:1 mixed media each, after which 10 µM of FITC was injected into the reservoir. The platforms were connected to the peristaltic pumps run at 100 rpm to generate physiologically relevant fluid flow rate and shear stress. Aliquots were taken from the reservoir, bone and cardiac chambers at 0, 2, 4, 6, and 12 hours post injection, and assayed for fluorescence signal on a spectrophotometer (Biotek).

[7] = system: endothelial barrier; assay: Endothelial barrier permeability under flow shear (ECs and supporting MSCs on mesh inserts); type: cell-based, human

## CN(CCOc1ccc(NS(C)(=O)=O)cc1)CCc1ccc(NS(C)(=O)=O)cc1 [dofetilide]
[1]
  beat rate of cardiac muscle: decreased

## COc1cccc2c1C(=O)c1c(O)c3c(c(O)c1C2=O)C[C@@](O)(C(=O)CO)C[C@@H]3O[C@H]1C[C@H](N)[C@H](O)[C@H](C)O1 [doxorubicin]
[2]
  miR-1273a fold change (FC): −30.6
[3]
  diffusional permeability of skin: increased
  electrical resistance of skin: decreased
[4]
  beat frequency: initially increased, and then decreased following prolonged exposure
[5]
  cell viability: significantly decreased
  glucose consumption: significantly decreased
  mitochondrial activity: significantly decreased

## CNC[C@H](O)c1ccc(O)c(O)c1 [epinephrine]
[1]
  beat rate of cardiac muscle: increased the beat rate in a time-dependent manner

## Fluorescein isothiocyanate [FITC]
[6]; 10 μM circulated for 72 hours, compared to multi-well plates
  absorption by the platform: without any measurable absorption
[6]; 10 μM injected into reservoir
  time to equilibrium across both models: approximately 6 hours
  time to uniform concentration in all areas of the platform: ≤ 12 h

## thrombin
[7]
  barrier permeability in response to thrombin: physiologic increase in barrier permeability
